Experimental data as given in patent US20250195536A1, “BICYCLOOCTANE KRAS INHIBITORS” (Incyte Corporation, priority 2023, published 2025).

Legend:
KRAS G12D = KRAS G12D (Homo sapiens, UniProt P01116, G12D); assay: GDP-GTP exchange assay (KRAS G12D); assay type: biochemical; settings: bodipy-GDP/GppNHp exchange with SOS1; 4 h pre-incubation, 2 h reaction
Protocol: (§1) The inhibitor potency of the exemplified compounds was determined in a fluorescence based guanine nucleotide exchange assay, which measures the exchange of bodipy-GDP (fluorescently labeled GDP) for GppNHp (Non-hydrolyzable GTP analog) to generate the active state of KRAS in the presence of SOS1 (guanine nucleotide exchange factor). Inhibitors were serially diluted in DMSO and a volume of 0.1 μL was transferred to the wells of a black low volume 384-well plate. 5 μL/well volume of bodipy-loaded KRAS G12D diluted to 2.5 nM in assay buffer (25 mM Hepes pH 7.5, 50 mM NaCl, 10 mM MgCl2 and 0.01% Brij-35) was added to the plate and pre-incubated with inhibitor for 4 h at r.t. Appropriate controls (enzyme with no inhibitor or with a G12D inhibitor) were included on the plate. The exchange was initiated by the addition of a 5 μL/well volume containing 1 mM GppNHp and 300 nM SOS1 in assay buffer. The 10 μL/well reaction concentration of the bodipy-loaded KRAS G12D, GppNHp, and SOS1 were 2.5 nM, 500 μM, and 150 nM, respectively. The reaction plates were incubated at r.t. for 2 h, a time estimated for complete GDP-GTP exchange in the absence of inhibitor. For the KRAS G12V mutant, similar guanine nucleotide exchange assays were used with 2.5 nM as final concentration for the bodipy loaded KRAS proteins and 3 h incubation after adding GppNHp-SOS1 mixture. A cyclic peptide described to selectively bind G12D mutant (Sakamoto et al., BBRC 484.3 (2017), 605-611) or internal compounds with confirmed binding were used as positive controls in the assay plates. Fluorescence intensities were measured on a PheraStar plate reader instrument (BMG Labtech) with excitation at 485 nm and emission at 520 nm.
(§2) Either GraphPad prism or Genedata Screener SmartFit was used to analyze the data. The IC50 values were derived by fitting the data to a four parameter logistic equation producing a sigmoidal dose-response curve with a variable Hill coefficient.
(§3) The symbol “⬆” indicates IC50 100 nM, “⬆⬆” indicates IC50 >100 nM but ≤1 μM; and “⬆⬆⬆” indicates IC50 is >1 μM but ≤5 μM, “⬆⬆⬆⬆” indicates IC50 is >5 μM but ≤10 μM. “NA” indicates IC50 not available.

KRAS G12V = KRAS G12V (Homo sapiens, UniProt P01116, G12V); assay: GDP-GTP exchange assay (KRAS G12V); assay type: biochemical; settings: bodipy-GDP/GppNHp exchange with SOS1; 3 h incubation after GppNHp-SOS1
Chain of KRAS G12V (P01116 1-188 isoform P01116-2 G12V): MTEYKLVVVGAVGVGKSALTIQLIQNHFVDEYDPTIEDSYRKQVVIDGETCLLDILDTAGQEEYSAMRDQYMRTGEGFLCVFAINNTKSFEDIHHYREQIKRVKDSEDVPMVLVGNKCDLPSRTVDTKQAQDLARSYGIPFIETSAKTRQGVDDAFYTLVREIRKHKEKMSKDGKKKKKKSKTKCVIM
Protocol: as §1, §2, §3
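Further: one dagger IC50 up to 100 nM and two daggers above 100 nM up to 1 μM.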

Chain of KRAS G12D (P01116 1-188 isoform P01116-2 G12D): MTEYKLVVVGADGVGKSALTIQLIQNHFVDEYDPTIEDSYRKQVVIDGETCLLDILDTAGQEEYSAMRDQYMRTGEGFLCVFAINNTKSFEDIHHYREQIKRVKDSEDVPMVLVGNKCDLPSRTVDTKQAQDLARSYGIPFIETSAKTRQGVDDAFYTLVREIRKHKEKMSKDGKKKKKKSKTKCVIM

SMILES | G12D_exchange (KRAS_G12D exchange assay IC50) (KRAS G12D) | G12V_exchange (KRAS_G12V exchange assay IC50) (KRAS G12V)
Cc1nc2c(F)c(-c3cccc(Cl)c3Cl)c(CCC#N)cc2c2c1cc([C@H]1[C@H]3C[C@H](CN(c4ccccc4C(F)(F)F)C3)N1C(=O)C1CC1)n2[C@H]1[C@H]2CN[C@@H]1C2 (atropisomer, axis not shown; (Ra)) [Example 16, 3-((Ra)-1-((1R,4R,5S)-2-azabicyclo[2.1.1]hexan-5-yl)-2-((1S,5R,7R)-6-(cyclopropanecarbonyl)-3-(2-(trifluoromethyl)phenyl)-3,6-diazabicyclo[3.2.1]octan-7-yl)-7-(2,3-dichlorophenyl)-6-fluoro-4-methyl-1H-pyrrolo[3,2-c]quinolin-8-yl)propanenitrile] | ††† | †††
[2H]C1([2H])[C@@H]2C[C@H](CN1c1ncc(C(C)C)s1)N(C(=O)C1CC1)[C@H]2c1cc2c(C)nc3c(F)c(-c4cccc(Cl)c4Cl)c(CCC#N)cc3c2n1[C@H]1[C@H]2CN[C@@H]1C2 (atropisomer, axis not shown; (Ra)) [Example 123, 3-((Ra)-1-((1R,4R,5S)-2-Azabicyclo[2.1.1]hexan-5-yl)-2-((1 S,5R,7R)-6-(cyclopropanecarbonyl)-3-(5-isopropylthiazol-2-yl)-3,6-diazabicyclo[3.2.1]octan-7-yl-2,2-d2)-7-(2,3-dichlorophenyl)-6-fluoro-4-methyl-1H-pyrrolo[3,2-c]quinolin-8-yl)propanenitrile] | †† | †
Cc1nc2c(F)c(-c3cccc(Cl)c3Cl)c(CCC#N)cc2c2c1cc([C@H]1[C@H]3C[C@H](CN(c4cc(C(C)(F)F)ncn4)C3)N1C(=O)CO)n2[C@H]1[C@H]2CN[C@@H]1C2 (atropisomer, axis not shown; (Ra)) [Example 129, 3-((Ra)-1-((1R,4R,5S)-2-azabicyclo[2.1.1]hexan-5-yl)-7-(2,3-dichlorophenyl)-2-((1 S,5R,7R)-3-(6-(1,1-difluoroethyl)pyrimidin-4-yl)-6-(2-hydroxyacetyl)-3,6-diazabicyclo[3.2.1]octan-7-yl)-6-fluoro-4-methyl-1H-pyrrolo[3,2-c]quinolin-8-yl)propanenitrile] | – | †
Cc1nc2c(F)c(-c3cccc(Cl)c3Cl)c(CCC#N)cc2c2c1cc([C@H]1[C@H]3C[C@H](CN(c4ncc(C)n4C)C3)N1C(=O)C1CC1)n2[C@H]1[C@H]2CN[C@@H]1C2 (atropisomer, axis not shown; (Ra)) [Example 101, 3-((Ra)-1-((1R,4R,5S)-2-azabicyclo[2.1.1]hexan-5-yl)-2-((1S,5R,7R)-6-(cyclopropanecarbonyl)-3-(1,5-dimethyl-1H-imidazol-2-yl)-3,6-diazabicyclo[3.2.1]octan-7-yl)-7-(2,3-dichlorophenyl)-6-fluoro-4-methyl-1H-pyrrolo[3,2-c]quinolin-8-yl)propanenitrile] | † | †
Cc1nc2c(F)c(-c3cccc(Cl)c3Cl)c(CCC#N)cc2c2c1cc([C@H]1[C@H]3C[C@H](C(=O)N(c4ccc(C(F)(F)F)cc4)C3)N1C(=O)C1CC1)n2[C@H]1[C@H]2CN[C@@H]1C2 (atropisomer, axis not shown; (Ra)) [Example 120b, 3-((Ra)-1-((1R,4R,5S)-2-Azabicyclo[2.1.1]hexan-5-yl)-2-((1S,5R,7R)-6-(cyclopropanecarbonyl)-4-oxo-3-(4-(trifluoromethyl)phenyl)-3,6-diazabicyclo[3.2.1]octan-7-yl)-7-(2,3-dichlorophenyl)-6-fluoro-4-methyl-1H-pyrrolo[3,2-c]quinolin-8-yl)propanenitrile] | † | †
Cc1nc2c(F)c(-c3cccc(Cl)c3Cl)c(CCC#N)cc2c2c1cc([C@H]1[C@H]3C[C@H](CN(c4ncc(C(F)F)s4)C3)N1C(=O)C1CC1)n2[C@H]1[C@H]2CN[C@@H]1C2 (atropisomer, axis not shown; (Ra)) [Example 102, 3-((Ra)-1-((1R,4R,5S)-2-azabicyclo[2.1.1]hexan-5-yl)-2-((1S,5R,7R)-6-(cyclopropanecarbonyl)-3-(5-(difluoromethyl)thiazol-2-yl)-3,6-diazabicyclo[3.2.1]octan-7-yl)-7-(2,3-dichlorophenyl)-6-fluoro-4-methyl-1H-pyrrolo[3,2-c]quinolin-8-yl)propanenitrile] | † | †

Next, values leading:

G12D_exchange (KRAS_G12D exchange assay IC50) (KRAS G12D) | G12V_exchange (KRAS_G12V exchange assay IC50) (KRAS G12V) | SMILES
†† | † | Cc1nc2c(F)c(-c3cccc(Cl)c3Cl)c(CCC#N)cc2c2c1cc([C@H]1[C@H]3C[C@H](CN(c4cccc(=O)n4C)C3)N1C(=O)C1CC1)n2[C@H]1[C@H]2CN[C@@H]1C2 (atropisomer, axis not shown; (Ra)) [Example 57, 3-((Ra)-1-((1R,4R,5S)-2-azabicyclo[2.1.1]hexan-5-yl)-2-((1S,5R,7R)-6-(cyclopropanecarbonyl)-3-(1-methyl-6-oxo-1,6-dihydropyridin-2-yl)-3,6-diazabicyclo[3.2.1]octan-7-yl)-7-(2,3-dichlorophenyl)-6-fluoro-4-methyl-1H-pyrrolo[3,2-c]quinolin-8-yl)propanenitrile]
†† | † | COc1nccc(N2C[C@@H]3C[C@H](C2)N(C(=O)C2CC2)[C@H]3c2cc3c(C)nc4c(F)c(-c5cccc(Cl)c5Cl)c(CCC#N)cc4c3n2[C@H]2[C@H]3CN[C@@H]2C3)c1C (atropisomer, axis not shown; (Ra)) [Example 77, 3-((Ra)-1-((1R,4R,5S)-2-azabicyclo[2.1.1]hexan-5-yl)-2-((1S,5R,7R)-6-(cyclopropanecarbonyl)-3-(2-methoxy-3-methylpyridin-4-yl)-3,6-diazabicyclo[3.2.1]octan-7-yl)-7-(2,3-dichlorophenyl)-6-fluoro-4-methyl-1H-pyrrolo[3,2-c]quinolin-8-yl)propanenitrile]
† | † | Cc1nc2c(F)c(-c3cccc(Cl)c3Cl)c(CCC#N)cc2c2c1cc([C@H]1[C@H]3C[C@H](CN(c4ccncc4)C3)N1C(=O)C1CC1)n2[C@H]1[C@H]2CN[C@@H]1C2 (atropisomer, axis not shown; (Ra)) [Example 37, 3-((Ra)-1-((1R,4R,5S)-2-azabicyclo[2.1.1]hexan-5-yl)-2-((1S,5R,7R)-6-(cyclopropanecarbonyl)-3-(pyridin-4-yl)-3,6-diazabicyclo[3.2.1]octan-7-yl)-7-(2,3-dichlorophenyl)-6-fluoro-4-methyl-1H-pyrrolo[3,2-c]quinolin-8-yl)propanenitrile]
† | † | Cc1nc2c(F)c(-c3cccc(Cl)c3Cl)c(CCC#N)cc2c2c1cc([C@H]1[C@H]3C[C@H](CN(c4ccnc(OCC5CC5)c4)C3)N1C(=O)C1CC1)n2[C@H]1[C@H]2CN[C@@H]1C2 (atropisomer, axis not shown; (Ra)) [Example 82, 3-((Ra)-1-((1R,4R,5S)-2-azabicyclo[2.1.1]hexan-5-yl)-2-((1S,5R,7R)-6-(cyclopropanecarbonyl)-3-(2-(cyclopropylmethoxy)pyridin-4-yl)-3,6-diazabicyclo[3.2.1]octan-7-yl)-7-(2,3-dichlorophenyl)-6-fluoro-4-methyl-1H-pyrrolo[3,2-c]quinolin-8-yl)propanenitrile]
